Laboratory results: paper PMC7126875 (Bioorganic & Medicinal Chemistry Letters, 2007)

Key:
[1] = system: SARS-CoV Frankfurt-1 strain; assay type: cell-based
[2] = system: SARS-CoV Frankfurt-1 strain; assay type: cell-based; remark: listed apart in the source
[3] = system: SARS-CoV Frankfurt-1 strain; details: cited from earlier work
[4] = system: SARS-CoV Frankfurt-1 strain; details: cited from earlier work; remark: listed apart in the source
[5] = system: Vero E6 cells; details: cited from earlier work

SMILES	anti-SARS-CoV activity (in words) [2]	Antiviral index (50% toxic dose divided by 50% inhibitory dose) [3]	concentration required to decrease the virus yield to one-tenth of the control [4]	CC50 [5]	other results
OC[C@H]1O[C@@H](n2cnc3c(Cl)ncnc32)[C@H](O)[C@@H]1O [Compound 1]	–	–	–	–	concentration required to reduce the virus yield to one-hundredth of the control [1]: approximately 20 μM
OC[C@H]1O[C@@H](n2cnc3c(Cl)ncnc32)C[C@@H]1O [Compound 6]	weak antiviral activity	–	–	–	–
OC[C@@H]1C[C@@H](O)[C@H](n2cnc3c(Cl)ncnc32)O1 [Compound 7]	weak antiviral activity	–	–	–	–
OCC1CC(n2cnc3c(Cl)ncnc32)C1CO (stereo not shown) [Compound 10]	almost no activity	–	–	–	–
NC(=O)c1ncn([C@@H]2O[C@H](CO)[C@@H](O)[C@H]2O)c1O [Mizoribine]	–	>52	approximately 35 μM	> 700 µM	–
NC(=O)c1ncn([C@@H]2O[C@H](CO)[C@@H](O)[C@H]2O)n1 [Ribavirin]	–	>10	~200 µM	> 850 µM	–
